Literature values, collected in US20040192715A1, “Methods of administering opioid antagonists and compositions thereof” (priority 2003, published 2004).

Key:
[1] = oral administration
mice = conditions: parenteral administration to mice

Compound: O=C1CC[C@@]2(O)[C@H]3Cc4ccc(O)c5c4[C@@]2(CCN3CC2CC2)C1O5 (stereo partly drawn) [naltrexone, 17-(cyclopropylmethyl) -4,5-epoxy-3,14-dihydroxymorphinan-6-one]
- protein binding: approximately 21%
- oral bioavailability [1]: 5-40%
- analgesia (mice): produce analgesia
